Data as given in patent US12391737B2, “Soluble NPY2 receptor agonists” (Boehringer Ingelheim International GmbH, priority 2020, dated 2025).

Key:
[1] = target: T1, Human Neuropeptide Y2 Receptor (Homo sapiens, UniProt P49146); assay: Radioligand binding competition assay (RLB); settings: Table 3, 125I-PYY(1-36) competition; read-out: Ki
T1 construct: purchased CHEMICON HTS066M
T1 sequence (P49146 1-381): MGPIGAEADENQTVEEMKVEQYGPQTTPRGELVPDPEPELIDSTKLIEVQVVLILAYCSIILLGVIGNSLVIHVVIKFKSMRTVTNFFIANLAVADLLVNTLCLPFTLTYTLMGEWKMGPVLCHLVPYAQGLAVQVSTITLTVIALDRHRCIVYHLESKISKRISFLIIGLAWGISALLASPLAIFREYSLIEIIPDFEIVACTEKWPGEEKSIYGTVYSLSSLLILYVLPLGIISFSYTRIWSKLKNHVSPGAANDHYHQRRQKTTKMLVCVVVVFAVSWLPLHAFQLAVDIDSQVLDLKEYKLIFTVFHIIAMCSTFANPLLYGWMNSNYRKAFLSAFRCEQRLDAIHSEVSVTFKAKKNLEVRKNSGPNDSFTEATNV
Procedure: The filtration RLB assay was carried out in 96-well plates in a final volume of 100 μl per well. Freeze-dried test peptides were dissolved in 100% dimethyl sulfoxide (DMSO) to stock solutions of 1 mM and serial dilutions were performed in assay buffer (50 mM HEPES, 5 mM MgCl2, 1 mM CaCl2, pH 7.4) containing 0.2% ovalbumin. […] Next, 80 μL membranes (HTS066M, ChemiSCREEN™ Human Neuropeptide Y2 Receptor Membrane Preparation, CHEMICON) were added to each well to give a final protein concentration of 0.5 μg/well. The plates were sealed and incubated at room temperature for 2 hours in a plate shaker set at 400 rpm. The incubation was stopped by vacuum filtration onto 0.5% polyethylene amine (PE) presoaked GF/C filters using a 96-well FilterMate™ harvester (Perkin Elmer) followed by four washes with 300 μl/well ice-cold wash buffer (50 mM HEPES, 500 mM NaCl, pH7.4). Filter plates were then dried for 60 min at room temperature and the bottom of the plates was sealed with backing tape UniFilter-96. Finally, 50 μl/well scintillation counter cocktail (Microscint20, Packard) was added and the radioactivity was counted in the Packard TopCount NXT scintillation counter. IC50 values (the half maximal inhibitory concentration of the agonist) were calculated by nonlinear regression analysis of sigmoidal dose-response curves.

Solubility determination = settings: for Sol6: pH 6; for Sol7: pH 7
Outline: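 Solubility is derived from the ratio of reversed-phase peak areas, filtered sample over a control dissolved at 1 mg/ml in 50% acetonitrile. Peptides are agitated for 2 hours at room temperature in 0.1 M sodium diphosphate at pH 6.4 or 7.0, aiming at 10 mg/ml.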

| SMILES | Ki [1] [nM] | Sol6 (Solubility determination) [mg/mL] | Sol7 (Solubility determination) [mg/mL] |
| --- | --- | --- | --- |
| CC(C)CC(=O)N[C@@H](C)C(=O)N1CCC[C@H]1C(=O)N[C@@H](CCC(=O)O)C(=O)N[C@@H](CCCCNC(=O)CCCCCNC(=O)CC[C@H](NC(=O)CCCCCCCCCCCCCCCCC(=O)O)C(=O)O)C(=O)N1CCC[C@H]1C(=O)N[C@@H](CCC(=O)O)C(=O)N[C@@H](CCC(=O)O)C(=O)N[C@@H](CCC(N)=O)C(=O)N[C@@H](C)C(=O)N[C@H](C(=O)N1CCC[C@H]1C(=O)N[C@@H](CCC(=O)O)C(=O)N[C@@H](CCC(=O)O)C(=O)N[C@@H](CC(C)C)C(=O)N[C@@H](CCC(N)=O)C(=O)N[C@@H](CCCNC(=N)N)C(=O)N[C@@H](Cc1ccc(O)cc1)C(=O)N[C@@H](Cc1ccc(O)cc1)C(=O)N[C@H](C(=O)N[C@@H](CO)C(=O)N[C@@H](CC(C)C)C(=O)N[C@@H](CCCNC(=N)N)C(=O)N[C@@H](Cc1c[nH]cn1)C(=O)N[C@@H](Cc1ccc(O)cc1)C(=O)N[C@@H](Cc1ccc(O)cc1)C(=O)N[C@@H](CC(N)=O)C(=O)N[C@@H](Cc1c[nH]c2ccccc12)C(=O)N[C@@H](CC(C)C)C(=O)N[C@H](C(=O)N[C@@H](CCCNC(=N)N)C(=O)N[C@@H](CCC(N)=O)C(=O)N[C@@H](CCCNC(=N)N)C(=O)N[C@@H](Cc1ccc(O)cc1)C(N)=O)[C@@H](C)O)C(C)C)[C@@H](C)O [Compound 9, N{alpha-4}-(3-methylbutanoyl)-N{epsilon-7}-(6-[(4S)-4-carboxy-4-(17-carboxyheptadecanamido)butanamido]hexanoyl)[4A,7K,9E,11Q,13T,18Q,22V,28Y,30W,31L]-hPYY(4-36)] | 3.32 | 9.7 | 9.9 |
| CC(C)CC(=O)N[C@@H](C)C(=O)N1CCC[C@H]1C(=O)N[C@@H](C)C(=O)N[C@@H](CCCCNC(=O)CCCCCNC(=O)CC[C@H](NC(=O)CCCCCCCCCCCCCCCCC(=O)O)C(=O)O)C(=O)N1CCC[C@H]1C(=O)N[C@@H](CCC(=O)O)C(=O)N[C@@H](CCC(=O)O)C(=O)N[C@@H](CC(=O)O)C(=O)N[C@@H](C)C(=O)N[C@@H](CO)C(=O)N[C@@H](CCC(=O)O)C(=O)N[C@@H](CCC(=O)O)C(=O)N[C@@H](CCC(=O)O)C(=O)N[C@@H](CC(C)C)C(=O)N[C@@H](CCC(N)=O)C(=O)N[C@@H](CCCNC(=N)N)C(=O)N[C@@H](Cc1ccc(O)cc1)C(=O)N[C@@H](Cc1ccc(O)cc1)C(=O)N[C@H](C(=O)N[C@@H](CO)C(=O)N[C@@H](CC(C)C)C(=O)N[C@@H](CCCNC(=N)N)C(=O)N[C@@H](Cc1c[nH]cn1)C(=O)N[C@@H](Cc1ccc(O)cc1)C(=O)N[C@@H](Cc1ccc(O)cc1)C(=O)N[C@@H](CC(N)=O)C(=O)N[C@@H](Cc1c[nH]c2ccccc12)C(=O)N[C@@H](CC(C)C)C(=O)N[C@H](C(=O)N[C@@H](CCCNC(=N)N)C(=O)N[C@@H](CCC(N)=O)C(=O)N[C@@H](CCCNC(=N)N)C(=O)N[C@@H](Cc1ccc(O)cc1)C(N)=O)[C@@H](C)O)C(C)C [Compound 185, N{alpha-4}-(3-methylbutanoyl)-N{epsilon-7}-(6-[(4S)-4-carboxy-4-(17-carboxyheptadecanamido)butanamido]hexanoyl)-[4A,6A,7K,9E,14E,18Q,22V,28Y,30W,31L]-hPYY(4-36)] | 2.06 | 8.7 | 8.9 |
| CC(C)CC(=O)N[C@@H](C)C(=O)N1CCC[C@H]1C(=O)N[C@@H](CCC(=O)O)C(=O)N[C@@H](CCCCNC(=O)CCCCCNC(=O)CC[C@H](NC(=O)CCCCCCCCCCCCCCCCC(=O)O)C(=O)O)C(=O)N1CCC[C@H]1C(=O)N[C@@H](CCC(=O)O)C(=O)N[C@@H](CCC(=O)O)C(=O)N[C@@H](CC(=O)O)C(=O)N[C@@H](C)C(=O)N[C@@H](CCC(=O)O)C(=O)N1CCC[C@H]1C(=O)N[C@@H](CCC(=O)O)C(=O)N[C@@H](CCC(=O)O)C(=O)N[C@@H](CC(C)C)C(=O)N[C@@H](CCC(N)=O)C(=O)N[C@@H](CCCNC(=N)N)C(=O)N[C@@H](Cc1ccc(O)cc1)C(=O)N[C@@H](Cc1ccc(O)cc1)C(=O)N[C@H](C(=O)N[C@@H](CO)C(=O)N[C@@H](CC(C)C)C(=O)N[C@@H](CCCNC(=N)N)C(=O)N[C@@H](Cc1c[nH]cn1)C(=O)N[C@@H](Cc1ccc(O)cc1)C(=O)N[C@@H](Cc1ccc(O)cc1)C(=O)N[C@@H](CCC(N)=O)C(=O)N[C@@H](Cc1c[nH]c2ccccc12)C(=O)N[C@@H](CC(C)C)C(=O)N[C@H](C(=O)N[C@@H](CCCNC(=N)N)C(=O)N[C@@H](CCC(N)=O)C(=O)N[C@@H](CCCNC(=N)N)C(=O)N[C@@H](Cc1ccc(O)cc1)C(N)=O)[C@@H](C)O)C(C)C [Compound 68, N{alpha-4}-(3-methylbutanoyl)-N{epsilon-7}-(6-[(4S)-4-carboxy-4-(17-carboxyheptadecanamido)butanamido]hexanoyl)-[4A,7K,9E,13E,18Q,22V,28Y,29Q,30W,31L]-hPYY(4-36)] | 9.07 | 9.9 | 10.0 |

Results, then the molecule that gave them:

| Ki [1] [nM] | Sol6 (Solubility determination) [mg/mL] | Sol7 (Solubility determination) [mg/mL] | SMILES |
| --- | --- | --- | --- |
| 3.65 | 9.1 | 8.7 | CC(C)CC(=O)N[C@@H](C)C(=O)N1CCC[C@H]1C(=O)N[C@@H](CCC(=O)O)C(=O)N[C@@H](CCCCNC(=O)CCCCCNC(=O)CC[C@H](NC(=O)CCCCCCCCCCCCCCCCC(=O)O)C(=O)O)C(=O)N1CCC[C@H]1C(=O)N[C@@H](CCC(=O)O)C(=O)N[C@@H](CCC(=O)O)C(=O)N[C@@H](CC(=O)O)C(=O)N[C@@H](C)C(=O)N[C@@H](C)C(=O)N1CCC[C@H]1C(=O)N[C@@H](CCC(=O)O)C(=O)N[C@@H](CCC(=O)O)C(=O)N[C@@H](CC(C)C)C(=O)N[C@@H](CCC(N)=O)C(=O)N[C@@H](CCCCN)C(=O)N[C@@H](Cc1ccc(O)cc1)C(=O)N[C@@H](Cc1ccc(O)cc1)C(=O)N[C@H](C(=O)N[C@@H](CO)C(=O)N[C@@H](CC(C)C)C(=O)N[C@@H](CCCNC(=N)N)C(=O)N[C@@H](Cc1c[nH]cn1)C(=O)N[C@@H](Cc1ccc(O)cc1)C(=O)N[C@@H](Cc1ccc(O)cc1)C(=O)N[C@@H](CC(N)=O)C(=O)N[C@@H](Cc1c[nH]c2ccccc12)C(=O)N[C@@H](CC(C)C)C(=O)N[C@H](C(=O)N[C@@H](CCCNC(=N)N)C(=O)N[C@@H](CCC(N)=O)C(=O)N[C@@H](CCCNC(=N)N)C(=O)N[C@@H](Cc1ccc(O)cc1)C(N)=O)[C@@H](C)O)C(C)C [Compound 123, N{alpha-4}-(3-methylbutanoyl)-N{epsilon-7}-(6-[(4S)-4-carboxy-4-(17-carboxyheptadecanamido)butanamido]hexanoyl)-[4A,7K,9E,13A,18Q,19K,22V,28Y,30W,31L]-hPYY(4-36)] |
| 12.4 | 10.0 | 10.0 | CC(C)CC(=O)N[C@@H](C)C(=O)N1CCC[C@H]1C(=O)N[C@@H](CCC(=O)O)C(=O)N[C@@H](CCCCNC(=O)CCCCCNC(=O)CC[C@H](NC(=O)CCCCCCCCCCCCCCCCC(=O)O)C(=O)O)C(=O)N1CCC[C@H]1C(=O)N[C@@H](CCC(=O)O)C(=O)N[C@@H](CCC(=O)O)C(=O)N[C@@H](CC(=O)O)C(=O)N[C@@H](C)C(=O)N[C@H](C(=O)N1CCC[C@H]1C(=O)N[C@@H](CCC(=O)O)C(=O)N[C@@H](CCC(=O)O)C(=O)N[C@@H](CC(C)C)C(=O)N[C@@H](CCC(N)=O)C(=O)N[C@@H](CCC(=O)O)C(=O)N[C@@H](Cc1ccc(O)cc1)C(=O)N[C@@H](Cc1ccc(O)cc1)C(=O)N[C@H](C(=O)N[C@@H](CO)C(=O)N[C@@H](CC(C)C)C(=O)N[C@@H](CCCNC(=N)N)C(=O)N[C@@H](Cc1c[nH]cn1)C(=O)N[C@@H](Cc1ccc(O)cc1)C(=O)N[C@@H](Cc1ccc(O)cc1)C(=O)N[C@@H](CC(N)=O)C(=O)N[C@@H](Cc1c[nH]c2ccccc12)C(=O)N[C@@H](CC(C)C)C(=O)N[C@H](C(=O)N[C@@H](CCCNC(=N)N)C(=O)N[C@@H](CCC(N)=O)C(=O)N[C@@H](CCCNC(=N)N)C(=O)N[C@@H](Cc1ccc(O)cc1)C(N)=O)[C@@H](C)O)C(C)C)[C@@H](C)O [Compound 38, N{alpha-4}-(3-methylbutanoyl)-N{epsilon-7}-(6-[(4S)-4-carboxy-4-(17-carboxyheptadecanamido)butanamido]hexanoyl)[4A,7K,9E,13T,18Q,19E,22V,28Y,30W,31L]-hPYY(4-36)] |
